Test system: prothrombin deficient plasma
Experiment: Thrombelastography in prothrombin deficient plasma with purified prothrombin
Type: biochemical, human
Settings: mean ± SD
Description: Plasma types, purified proteins and compounds. Prothrombin deficient plasma (George King Bio-Medical, Overland Park, Kans.) anticoagulated with sodium citrate was utilized for experimentation concerning the effects of CORM-2 on prothrombin. Purified prothrombin (Enzyme Research Laboratories, South Bend, Ind.) that was 95% pure (10.4 mg/mL, 11.1 U/mg, suspended in 20 mM Tris-HCl in 0.1M NaCl at pH 7.4) was used for experimentation. Fibrinogen deficient plasma (Affinity Biologicals, Inc., Ancaster, Ontario, Canada) anticoagulated with sodium citrate was used in experiments investigating the effects of CORM-2 on fibrinogen. […] CORM-2 and dimethyl sulfoxide (DMSO) were obtained from Sigma-Aldrich, St. Louis, Mo.
Exposure of purified prothrombin to CORM-2. In order to determine if pre-exposure of prothrombin with CORM-2 would enhance coagulation kinetics in prothrombin deficient plasma, 396 μL of pure prothrombin solution was combined with 4 μL of either DMSO or CORM-2 in DMSO for a final concentration of 0 or 100 μM CORM-2. This solution was incubated for 5 min at 37° C. prior to being added to prothrombin deficient plasma for thrombelastographic analyses. A volume of 3.1 μL of incubated solution was added to the final reaction mixture subsequently presented for a final prothrombin activity of 1 U/mL.
Prothrombin deficient plasma experiments. The final volume for experiments involving prothrombin deficient plasma was 359.1-360.7 μL. In experiments involving pre-exposure of prothrombin to 0 or 100 μM CORM-2 (n=7 per concentration), the sample consisted of 326 μL of prothrombin deficient plasma, 3.1 μL of prothrombin solution, 10 μL of tissue factor reagent (0.1% final concentration in dH2O; Instrumentation Laboratory, Lexington, Mass.), and 20 μL of 200 mM CaCl2. In experiments involving simple CORM-2 addition (positive control) to the reactants, the sample mixture consisted of 324 μL of prothrombin deficient plasma, 3.1 μL of prothrombin solution, 3.6 μL of DMSO or CORM-2 in DMSO (final CORM-2 concentration 0 or 100 μM, n=8 per concentration), 10 μL of tissue factor reagent (0.1% final concentration), and 20 μl of 200 mM CaCl2.
Thrombelastographic monitoring. Plasma sample mixtures were placed in a disposable cup in a computer-controlled THROMBELASTOGRAPH® hemostasis system (Model 5000, Haemoscope Corp., Niles, Ill.), with addition of CaCl2 as the last step to initiate clotting. Data were collected until clot strength stabilized. The following previously described variables (Examples 1-3) were determined at 37° C.: Time to maximum rate of thrombus generation (TMRTG): This is the time interval (sec) observed prior to maximum speed of clot growth. Maximum rate of thrombus generation (MRTG): This is the maximum velocity of clot growth observed (dynes/cm^2/sec). Total Thrombus Generation (TTG): This is the total area under the velocity curve during clot growth (dynes/cm^2), representing the amount of clot strength generated during clot growth.
Statistical Analyses. Data obtained from experiments involving prothrombin deficient plasma are presented as mean±SD. Typically, n=6-8 provides statistical power >0.8 in similar analyses (Examples 1 and 2). Analyses of the effects of CORM-2 on thrombelastographic variables were conducted using unpaired, two-tailed Student's t-tests. A P value of <0.05 was considered significant. Graphical representation of the thrombelastographic data derived from experiments with […] deficient plasma was generated with commercially available software (SigmaPlot 11.0, Systat Software, Inc., San Jose, Calif.). Coagulation kinetic model equations were derived with the same software. The difference between the mean values of MRTG or TTG in samples exposed to 0 or 100 μM CORM-2 were determined and expressed as percent difference secondary to CORM-2 exposure in the […] deficient plasma experiments.

[1] = 100 μM CORM-2 added to prothrombin deficient plasma mixed with prothrombin, n=8
[2] = purified prothrombin pre-exposed to 100 μM CORM-2, then added to prothrombin deficient plasma, n=7

[C-]#[O+].[C-]#[O+].[C-]#[O+].[C-]#[O+].[C-]#[O+].[C-]#[O+].[Cl][Ru][Cl].[Cl][Ru][Cl] [CORM-2, tricarbonyldichlororuthenium (II) dimer]
MRTG (maximum rate of thrombus generation) [1]: 9.17 ± 0.36 dynes/cm^2/sec | TMRTG (time to maximum rate of thrombus generation) [1]: 1.85 ± 0.04 min | TTG (total thrombus generation) [1]: 152 ± 7 dynes/cm^2 | MRTG (maximum rate of thrombus generation) [2]: 4.65 ± 0.99 dynes/cm^2/sec | TMRTG (time to maximum rate of thrombus generation) [2]: 2.15 ± 0.56 min | TTG (total thrombus generation) [2]: 88 ± 3 dynes/cm^2

From US8697747B2, “Enhancing coagulation or reducing fibrinolysis” (THe UAB Research Foundation, priority 2009, dated 2014)
